We go through nine compounds from patent publication US20240294569A1, “MODULATORS OF SORTILIN ACTIVITY” (Insusense ApS, priority 2021, published 2024).

What is called IC50 is the concentration needed to halve the response being measured.

Peptide text beside a SMILES is read from it.

In this assay the target is T1, hSortilin (Homo sapiens, UniProt Q99523).
T1 sequence (Q99523 78-831): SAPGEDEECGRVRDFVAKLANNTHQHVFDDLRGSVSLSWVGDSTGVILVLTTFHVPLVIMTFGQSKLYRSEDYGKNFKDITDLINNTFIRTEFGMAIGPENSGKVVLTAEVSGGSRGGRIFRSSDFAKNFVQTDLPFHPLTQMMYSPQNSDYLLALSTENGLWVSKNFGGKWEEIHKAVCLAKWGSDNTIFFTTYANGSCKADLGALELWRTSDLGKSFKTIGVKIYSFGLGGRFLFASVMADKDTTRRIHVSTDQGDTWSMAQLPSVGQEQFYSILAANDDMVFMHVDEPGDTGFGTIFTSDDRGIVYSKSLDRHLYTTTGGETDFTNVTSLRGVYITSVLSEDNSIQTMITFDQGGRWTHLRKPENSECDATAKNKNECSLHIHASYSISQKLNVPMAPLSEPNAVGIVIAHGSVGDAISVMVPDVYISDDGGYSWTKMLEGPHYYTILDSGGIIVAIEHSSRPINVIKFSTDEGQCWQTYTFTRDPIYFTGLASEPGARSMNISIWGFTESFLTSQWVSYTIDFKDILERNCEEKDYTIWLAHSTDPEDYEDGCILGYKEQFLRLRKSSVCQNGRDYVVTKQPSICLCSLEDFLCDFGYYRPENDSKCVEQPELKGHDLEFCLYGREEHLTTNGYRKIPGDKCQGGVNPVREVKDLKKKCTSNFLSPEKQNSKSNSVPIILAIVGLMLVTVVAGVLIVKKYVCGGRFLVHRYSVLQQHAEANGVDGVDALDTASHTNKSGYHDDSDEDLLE
The assay can be described thus: Neurotensin scintillation proximity assay (displacement of [3H]-neurotensin binding). Particulars: displacement of 5 nM [3H]-neurotensin from 150 nM 6his-Sortilin; average of at least 2 determinations; read-out: IC50 [3H]Neurotensin SPA. The protocol:
The data of exemplified compounds of the invention tested in a Neurotensin (NTS) scintillation proximity assay (SPA). NTS, which is a 13 amino acid neuropeptide, is a sortilin ligand. The IC50 is a measure of the amount of the compound required to inhibit the binding of NTS to sortilin by 50%.
Compound affinity was determined by measuring the displacement of [^3H]-neurotensin binding to hSortilin in SPA format. Total volume of 40 μl in 50 mM HEPES pH 7.4 assay buffer containing 100 mM NaCl, 2.0 mM CaCl2, 0.1% BSA and 0.1% Tween-20. Compound pre-incubation for 30 minutes at room temperature with 150 nM of 6his-Sortilin before 5 nM [3H]-Neurotensin and Ni chelate imaging beads (Perkin Elmer) were added, after 6 hours the plate was read on a ViewLux with 360 s exposure time. Dose-response evaluation of compounds was performed with 8 concentrations of drugs (covering 3 decades). IC50 values were calculated by nonlinear regression using the sigmoid concentration-response (variable slope) using CDD Vault software. All values reported are average of at least 2 determinations.
(In general: In a scintillation proximity assay essentially only radioactivity close to the scintillant gives light.)
On to `CC[C@H](C)[C@H](NC(=O)[C@H](C)NC(=O)[C@@H]1CCCN1)C(=O)N[C@@H](CCC(C)(C)C)C(=O)O` [Example 17, (2S)-5,5-Dimethyl-2-((3S)-3-methyl-2-((S)-2-((S)-pyrrolidine-2-carboxamido)propan amido)pentanamido) hexanoic acid] (HELM PEPTIDE1{P.A.I.[CC(C)(C)CC[C@H](N[*:1])C(=O)O]}$$$$V2.0), for which the half-maximal inhibitory concentration (IC50) worked out at 70 nM. As to `CC[C@H](C)[C@H](NC(=O)[C@H](Cc1ccc(O)cc1)NC(=O)[C@@H]1CNCCO1)C(=O)N[C@@H](CCC(C)(C)C)C(=O)O` [Example 22, (S)-2-((2S,3S)-2-((S)-3-(4-Hydroxyphenyl)-2-((S)-morpholine-2-carboxamido)propan amido)-3-methylpentanamido)-5,5-dimethylhexanoic acid], the IC50 came to 70 nM. Consider `CC(C)(C)CC[C@H](NC(=O)[C@H](Cc1cscn1)NC(=O)[C@H](CC(N)=O)NC(=O)[C@@H]1CCCN1)C(=O)O` [Example 10, (S)-2-((S)-2-((S)-4-Amino-4-oxo-2-((S)-pyrrolidine-2-carboxamido)butan-amido)-3-(thiazol-4-yl)propanamido)-5,5-dimethylhexanoic acid] (HELM PEPTIDE1{P.N.[O=C([C@H](Cc1cscn1)N[*:1])[*:2]].[CC(C)(C)CC[C@H](N[*:1])C(=O)O]}$$$$V2.0), for which the IC50 is 90 nM. The figure for `Cn1cnc(C[C@H](NC(=O)[C@H](Cc2ccc(O)cc2)NC(=O)[C@@H]2CCCN2)C(=O)N[C@@H](CCC(C)(C)C)C(=O)O)c1` [Example 7, (S)-2-((S)-2-((S)-3-(4-Hydroxyphenyl)-2-((S)-pyrrolidine-2-carboxamido)propan amido)-3-(1-methyl-1H-imidazol-4-yl)propanamido)-5,5-dimethylhexanoic acid] (HELM PEPTIDE1{P.Y.[Cn1cnc(C[C@H](N[*:1])C(=O)[*:2])c1].[CC(C)(C)CC[C@H](N[*:1])C(=O)O]}$$$$V2.0) is 370 nM. In the case of `CC[C@H](C)[C@H](NC(=O)[C@H](Cc1ccc(O)cc1)NC(=O)[C@H]1CN(C(C)=O)CCO1)C(=O)N[C@@H](CCC(F)(F)F)C(=O)O` [Example 4, (S)-2-((2S,3S)-2-((S)-2-((R)-4-Acetylmorpholine-2-carboxamido)-3-(4-hydroxyphenyl)propanamido)-3-methylpentanamido)-5,5,5-trifluoropentanoic acid], the IC50 was 1690 nM. The figure for `CC(C)(C)CC[C@H](NC(=O)[C@H](Cc1ccccn1)NC(=O)[C@H](Cc1ccc(O)cc1)NC(=O)[C@@H]1CCCN1)C(=O)O` [Example 5, (S)-2-((S)-2-((S)-3-(4-Hydroxyphenyl)-2-((S)-pyrrolidine-2-carboxamido)propanamido)-3-(pyridin-2-yl)propanamido)-5,5-dimethylhexanoic acid] (HELM PEPTIDE1{P.Y.[O=C([C@H](Cc1ccccn1)N[*:1])[*:2]].[CC(C)(C)CC[C@H](N[*:1])C(=O)O]}$$$$V2.0) is 270 nM; for `CC[C@H](C)[C@H](NC(=O)[C@H](Cc1ccc(O)cc1)NC(=O)[C@@H]1CCNC1)C(=O)N[C@@H](CCC(C)(C)C)C(=O)O` [Example 21, (S)-2-((2S,3S)-2-((S)-3-(4-Hydroxyphenyl)-2-((R)-pyrrolidine-3-carboxamido)propan amido)-3-methylpentanamido)-5,5-dimethylhexanoic acid] it is 180 nM. For `CC[C@H](C)[C@H](NC(=O)[C@H](Cc1ccc(O)cc1)NC(=O)[C@H]1COCCN1)C(=O)N[C@@H](CCC(C)(C)C)C(=O)O` [Example 23, (S)-2-((2S,3S)-2-((S)-3-(4-Hydroxyphenyl)-2-((R)-morpholine-3-carboxamido)propan amido)-3-methylpentanamido)-5,5-dimethylhexanoic acid], the IC50 turned out to be 100 nM. The value for `CC[C@H](C)[C@H](NC(=O)[C@H](Cc1ccc(O)cc1)NC(=O)[C@H]1CN(C(C)=O)CCO1)C(=O)N[C@@H](CCC(C)(C)C)C(=O)O` [Example 25, (S)-2-((2S,3S)-2-((S)-2-((R)-4-Acetylmorpholine-2-carboxamido)-3-(4-hydroxyphenyl)propanamido)-3-methylpentanamido)-5,5-dimethylhexanoic acid] was 140 nM.
